pIC50: −log10 of the molar value.
Experiments:
BTK [1] = target: T1, BTK (Homo sapiens, UniProt Q06187); test: scanMAX binding POC, BTK; conditions: 1 μM; zero POC = competition comparable to positive control
T1 construct: host or cells: transiently transfected HEK293 cells
Source text: (§1) Comprehensive Characterization of Bruton’s Tyrosine Kinase Inhibitor Specificity, Potency, and
(§2) Biological Effects: Insights into Covalent and Non-Covalent Mechanistic Signatures
(§3) Antonia C. Darragh1, Andrew M. Hanna1, Justin H. Lipner2, Alastair J. King2, Nicole B. Servant1, Mirza Jahic1*
(§4) *To whom correspondence should be addressed: Mirza Jahic, e-mail address: Mirza.Jahic@discovery.eurofinsus.com
(§5) Supporting Table S1. Comparison of BTK inhibitor specificity to TEC family members. TEC family members are
(§6) Burton’s tyrosine kinase (BTK), tyrosine kinase expressed in hepatocellular carcinoma (TEC), bone marrow-
(§7) expressed kinase (BMX/ETK), and T cell-expressed kinase (TXK/RLK), and interleukin-2-inducible T cell kinase
(§8) A zero POC signifies that the compound

TEC = target: T2, TEC (Homo sapiens, UniProt P42680); test: scanMAX binding POC, TEC; conditions: 1 μM
T2 sequence (P42680 1-631): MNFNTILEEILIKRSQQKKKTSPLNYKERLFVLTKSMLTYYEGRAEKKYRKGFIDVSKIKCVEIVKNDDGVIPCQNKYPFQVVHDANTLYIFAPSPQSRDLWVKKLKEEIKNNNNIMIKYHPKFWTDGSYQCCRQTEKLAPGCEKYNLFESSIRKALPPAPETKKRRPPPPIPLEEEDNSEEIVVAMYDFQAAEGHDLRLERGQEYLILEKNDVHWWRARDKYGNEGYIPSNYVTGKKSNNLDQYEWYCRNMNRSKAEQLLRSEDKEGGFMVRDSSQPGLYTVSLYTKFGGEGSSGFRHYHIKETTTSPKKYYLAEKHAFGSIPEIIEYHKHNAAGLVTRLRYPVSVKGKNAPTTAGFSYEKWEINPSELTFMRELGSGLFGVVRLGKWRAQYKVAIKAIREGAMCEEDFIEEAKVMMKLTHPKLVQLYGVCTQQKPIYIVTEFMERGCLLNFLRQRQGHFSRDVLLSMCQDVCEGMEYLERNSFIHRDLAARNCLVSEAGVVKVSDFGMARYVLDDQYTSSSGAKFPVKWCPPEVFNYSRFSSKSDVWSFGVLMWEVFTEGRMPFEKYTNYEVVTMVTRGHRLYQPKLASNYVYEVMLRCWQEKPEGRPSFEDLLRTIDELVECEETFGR
Source text: as §1, §2, §3, §4, §5, §6, §7, §8

TXK = target: T3, TXK (Homo sapiens, UniProt P42681); test: scanMAX binding POC, TXK; conditions: 1 μM
T3 sequence (P42681 1-527): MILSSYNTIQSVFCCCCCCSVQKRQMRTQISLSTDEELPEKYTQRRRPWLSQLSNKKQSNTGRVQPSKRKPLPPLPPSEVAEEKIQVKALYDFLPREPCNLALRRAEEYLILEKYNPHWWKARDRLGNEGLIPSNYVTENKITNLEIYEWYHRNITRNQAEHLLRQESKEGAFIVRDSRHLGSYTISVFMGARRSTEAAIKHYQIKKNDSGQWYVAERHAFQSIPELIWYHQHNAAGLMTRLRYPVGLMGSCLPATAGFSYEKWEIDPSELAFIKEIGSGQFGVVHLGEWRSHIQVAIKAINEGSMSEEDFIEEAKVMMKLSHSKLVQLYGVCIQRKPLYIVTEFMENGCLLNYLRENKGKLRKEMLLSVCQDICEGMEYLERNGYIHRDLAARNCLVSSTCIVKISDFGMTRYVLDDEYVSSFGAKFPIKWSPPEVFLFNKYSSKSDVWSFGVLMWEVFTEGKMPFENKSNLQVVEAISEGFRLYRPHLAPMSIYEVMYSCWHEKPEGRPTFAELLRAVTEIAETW
Source text: as §1, §2, §3, §4, §5, §6, §7, §8

ITK = target: T4, ITK (Homo sapiens, UniProt Q08881); test: scanMAX binding POC, ITK; conditions: 1 μM
T4 sequence (Q08881 1-620): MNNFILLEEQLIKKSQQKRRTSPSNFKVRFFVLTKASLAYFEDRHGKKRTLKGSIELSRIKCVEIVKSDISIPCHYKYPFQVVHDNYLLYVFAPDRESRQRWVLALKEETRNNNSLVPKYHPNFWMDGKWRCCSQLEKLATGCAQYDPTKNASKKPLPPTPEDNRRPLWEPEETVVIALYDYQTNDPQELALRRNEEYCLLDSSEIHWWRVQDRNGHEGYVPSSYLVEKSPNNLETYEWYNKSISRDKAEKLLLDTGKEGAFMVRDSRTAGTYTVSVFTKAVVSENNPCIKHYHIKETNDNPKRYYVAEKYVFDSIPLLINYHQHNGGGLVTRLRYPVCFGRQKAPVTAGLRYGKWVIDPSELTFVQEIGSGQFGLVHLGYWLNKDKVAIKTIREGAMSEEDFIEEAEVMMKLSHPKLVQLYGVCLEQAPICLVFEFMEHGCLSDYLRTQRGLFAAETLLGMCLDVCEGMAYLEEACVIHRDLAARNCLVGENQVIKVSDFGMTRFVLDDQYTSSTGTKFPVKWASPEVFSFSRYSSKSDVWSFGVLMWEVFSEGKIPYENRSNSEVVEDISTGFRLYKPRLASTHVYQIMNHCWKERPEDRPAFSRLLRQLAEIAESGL
Source text: as §1, §2, §3, §4, §5, §6, §7, §8

BLK = BLK (Homo sapiens, UniProt P51451); test: scanMAX binding POC, BLK; conditions: 1 μM
Chain of BLK (P51451 whole entry): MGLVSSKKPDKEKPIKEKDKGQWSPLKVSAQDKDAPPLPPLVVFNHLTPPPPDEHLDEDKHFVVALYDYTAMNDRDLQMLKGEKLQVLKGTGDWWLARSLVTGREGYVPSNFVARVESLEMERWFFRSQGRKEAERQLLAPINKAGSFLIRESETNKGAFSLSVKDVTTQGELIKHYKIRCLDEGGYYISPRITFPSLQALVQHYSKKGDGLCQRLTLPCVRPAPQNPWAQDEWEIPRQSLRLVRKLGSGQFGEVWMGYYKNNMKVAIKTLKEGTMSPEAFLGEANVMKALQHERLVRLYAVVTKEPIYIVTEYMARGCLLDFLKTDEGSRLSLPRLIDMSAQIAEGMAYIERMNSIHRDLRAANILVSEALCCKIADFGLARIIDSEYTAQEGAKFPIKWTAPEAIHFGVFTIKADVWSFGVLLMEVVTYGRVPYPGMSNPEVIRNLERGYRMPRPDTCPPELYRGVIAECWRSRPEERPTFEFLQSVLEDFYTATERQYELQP

EGFR = EGFR (Homo sapiens, UniProt P00533); test: scanMAX binding POC, EGFR; conditions: 1 μM
ERBB2 = ERBB2 (Homo sapiens, UniProt P04626); test: scanMAX binding POC, ERBB2; conditions: 1 μM
Chain of ERBB2 (P04626 23-1255): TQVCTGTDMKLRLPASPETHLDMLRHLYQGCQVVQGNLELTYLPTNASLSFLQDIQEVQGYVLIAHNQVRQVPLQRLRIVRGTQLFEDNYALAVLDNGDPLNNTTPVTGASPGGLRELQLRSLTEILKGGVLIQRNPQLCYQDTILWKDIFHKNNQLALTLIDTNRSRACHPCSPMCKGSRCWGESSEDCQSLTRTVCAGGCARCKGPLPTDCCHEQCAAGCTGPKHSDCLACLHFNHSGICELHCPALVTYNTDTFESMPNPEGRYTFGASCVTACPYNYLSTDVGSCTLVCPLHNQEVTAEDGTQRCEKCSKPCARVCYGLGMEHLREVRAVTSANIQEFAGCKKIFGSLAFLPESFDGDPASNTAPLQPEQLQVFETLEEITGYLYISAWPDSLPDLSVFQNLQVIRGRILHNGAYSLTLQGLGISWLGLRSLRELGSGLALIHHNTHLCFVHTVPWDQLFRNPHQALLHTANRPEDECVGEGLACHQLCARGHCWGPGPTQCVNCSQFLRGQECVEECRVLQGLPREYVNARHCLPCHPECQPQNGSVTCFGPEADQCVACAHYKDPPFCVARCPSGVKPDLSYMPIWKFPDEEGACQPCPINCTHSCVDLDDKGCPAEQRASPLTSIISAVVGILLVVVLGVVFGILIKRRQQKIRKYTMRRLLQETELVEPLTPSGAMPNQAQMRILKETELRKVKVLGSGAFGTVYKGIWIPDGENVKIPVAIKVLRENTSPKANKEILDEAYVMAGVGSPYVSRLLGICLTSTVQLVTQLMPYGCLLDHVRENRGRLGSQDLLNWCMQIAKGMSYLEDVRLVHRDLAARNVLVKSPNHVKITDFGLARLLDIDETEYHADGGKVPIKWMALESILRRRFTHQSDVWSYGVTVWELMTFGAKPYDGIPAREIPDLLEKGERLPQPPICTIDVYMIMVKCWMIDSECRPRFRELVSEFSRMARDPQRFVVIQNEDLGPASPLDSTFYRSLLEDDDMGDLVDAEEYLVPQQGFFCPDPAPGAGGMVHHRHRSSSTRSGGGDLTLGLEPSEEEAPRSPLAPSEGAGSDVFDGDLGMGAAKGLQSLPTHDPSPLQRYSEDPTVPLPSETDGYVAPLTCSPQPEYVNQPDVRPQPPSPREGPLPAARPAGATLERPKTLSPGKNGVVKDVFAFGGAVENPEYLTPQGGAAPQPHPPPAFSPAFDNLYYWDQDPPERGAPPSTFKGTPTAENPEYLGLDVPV

ERBB3 = ERBB3 (Homo sapiens, UniProt P21860); test: scanMAX binding POC, ERBB3; conditions: 1 μM
ERBB4 = ERBB4 (Homo sapiens, UniProt Q15303); test: scanMAX binding POC, ERBB4; conditions: 1 μM
Chain of ERBB4 (Q15303 26-1308): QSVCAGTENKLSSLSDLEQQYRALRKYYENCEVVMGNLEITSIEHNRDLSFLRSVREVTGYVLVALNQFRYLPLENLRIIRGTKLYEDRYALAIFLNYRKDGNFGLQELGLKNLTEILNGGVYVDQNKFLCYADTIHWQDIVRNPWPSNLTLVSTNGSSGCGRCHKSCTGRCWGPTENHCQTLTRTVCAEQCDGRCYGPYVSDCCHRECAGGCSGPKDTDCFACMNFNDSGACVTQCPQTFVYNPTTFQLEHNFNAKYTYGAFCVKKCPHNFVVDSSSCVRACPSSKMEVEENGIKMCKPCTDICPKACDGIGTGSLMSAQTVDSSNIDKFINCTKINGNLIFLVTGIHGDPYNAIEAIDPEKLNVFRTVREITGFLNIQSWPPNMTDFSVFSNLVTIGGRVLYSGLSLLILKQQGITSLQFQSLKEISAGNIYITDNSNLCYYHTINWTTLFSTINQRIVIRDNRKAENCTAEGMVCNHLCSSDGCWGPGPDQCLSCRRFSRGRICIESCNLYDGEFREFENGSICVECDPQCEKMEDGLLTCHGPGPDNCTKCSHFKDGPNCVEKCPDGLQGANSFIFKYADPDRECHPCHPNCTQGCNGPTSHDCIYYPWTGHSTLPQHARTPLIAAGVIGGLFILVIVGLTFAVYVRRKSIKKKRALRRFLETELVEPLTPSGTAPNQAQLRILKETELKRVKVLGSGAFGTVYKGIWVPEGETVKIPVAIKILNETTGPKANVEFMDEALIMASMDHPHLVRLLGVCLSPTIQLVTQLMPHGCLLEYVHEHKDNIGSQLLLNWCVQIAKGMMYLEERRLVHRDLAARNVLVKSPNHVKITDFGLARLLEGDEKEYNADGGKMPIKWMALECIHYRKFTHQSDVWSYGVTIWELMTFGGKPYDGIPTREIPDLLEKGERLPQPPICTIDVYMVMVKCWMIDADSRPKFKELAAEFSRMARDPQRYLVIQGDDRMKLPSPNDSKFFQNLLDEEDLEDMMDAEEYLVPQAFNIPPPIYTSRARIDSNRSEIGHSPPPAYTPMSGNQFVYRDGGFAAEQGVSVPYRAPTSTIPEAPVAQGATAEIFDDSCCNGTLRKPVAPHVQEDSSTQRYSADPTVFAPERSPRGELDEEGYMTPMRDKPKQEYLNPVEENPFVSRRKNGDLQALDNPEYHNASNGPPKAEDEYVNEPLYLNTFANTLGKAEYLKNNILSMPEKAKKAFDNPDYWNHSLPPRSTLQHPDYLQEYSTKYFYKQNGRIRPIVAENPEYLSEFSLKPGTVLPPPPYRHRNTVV

[2] = target: T5, JAK3 (JH1 catalytic domain) (Homo sapiens, UniProt P52333); test: scanMAX binding POC, JAK3; conditions: 1 μM
T5 construct: The JAK3 POC is for its JH1 catalytic domain
T5 sequence (P52333 822-1111 limits assumed): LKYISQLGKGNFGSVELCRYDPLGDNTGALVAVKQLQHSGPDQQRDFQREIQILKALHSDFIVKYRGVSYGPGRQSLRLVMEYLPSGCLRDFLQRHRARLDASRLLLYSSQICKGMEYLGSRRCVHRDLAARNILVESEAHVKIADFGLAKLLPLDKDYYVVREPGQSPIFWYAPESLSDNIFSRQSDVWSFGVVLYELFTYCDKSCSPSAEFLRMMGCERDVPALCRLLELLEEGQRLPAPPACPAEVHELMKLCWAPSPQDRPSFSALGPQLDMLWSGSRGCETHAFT

MKK7 = target: T6, MKK7 (Homo sapiens, UniProt O14733); test: scanMAX binding POC, MKK7; conditions: 1 μM
T6 sequence (O14733 1-419): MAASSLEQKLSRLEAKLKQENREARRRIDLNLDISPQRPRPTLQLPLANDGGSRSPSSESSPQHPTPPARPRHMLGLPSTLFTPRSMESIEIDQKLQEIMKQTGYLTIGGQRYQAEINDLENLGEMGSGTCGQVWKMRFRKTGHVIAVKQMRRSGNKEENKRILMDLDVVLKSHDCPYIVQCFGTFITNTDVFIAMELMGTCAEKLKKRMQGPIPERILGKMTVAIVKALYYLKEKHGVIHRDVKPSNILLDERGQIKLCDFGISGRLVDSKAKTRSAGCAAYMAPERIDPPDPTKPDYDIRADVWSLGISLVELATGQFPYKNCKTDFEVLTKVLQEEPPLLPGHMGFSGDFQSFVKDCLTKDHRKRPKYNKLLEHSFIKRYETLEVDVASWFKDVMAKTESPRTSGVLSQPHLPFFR

JNK1 (MAPK8) = JNK1 (MAPK8) (Homo sapiens, UniProt P45983); test: scanMAX binding POC, JNK1; conditions: 1 μM
Chain of JNK1 (MAPK8) (P45983 whole entry): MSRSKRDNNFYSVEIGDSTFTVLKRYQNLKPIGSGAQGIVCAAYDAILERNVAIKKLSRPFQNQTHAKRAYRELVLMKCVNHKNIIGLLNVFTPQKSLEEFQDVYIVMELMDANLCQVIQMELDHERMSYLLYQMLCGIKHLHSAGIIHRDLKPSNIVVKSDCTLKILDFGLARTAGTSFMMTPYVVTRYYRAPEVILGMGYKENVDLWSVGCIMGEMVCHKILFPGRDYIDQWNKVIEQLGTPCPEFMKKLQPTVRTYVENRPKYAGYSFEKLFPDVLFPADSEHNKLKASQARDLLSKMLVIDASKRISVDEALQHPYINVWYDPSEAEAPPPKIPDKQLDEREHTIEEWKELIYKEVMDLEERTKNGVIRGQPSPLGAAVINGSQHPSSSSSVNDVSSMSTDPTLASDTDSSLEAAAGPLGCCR
Procedure: (§9) The compounds were diluted directly into the assays such that the final concentration of DMSO was 0.9%. No enzyme purification steps were performed on the protein extracts before adding them to the reaction mixture, and the protein extracts were diluted 10,000-fold in the final reaction mixture (the final DNA-tagged enzyme concentration was less than 0.1 nM). Binding assay mixtures were incubated at 25 °C with shaking for 1 h. […] The concentration of wild-type or mutant BTK in the eluates was then determined using quantitative PCR. […] Each assay’s affinity ligand concentration on the magnetic beads has been optimized to ensure that the true thermodynamic Kd values for competitor molecules were measured, as described in detail previously99.
(§10) Comparison of BTK inhibitor specificity to c-Jun N-terminal kinases (JNK1-3/MAPKP8-10).
(§11) a The percent of control (POC) is the percent of kinase that was competed off its control ligand relative to the positive and negative controls at the screening concentration56. A zero POC signifies that the compound

JNK2 (MAPK9) = JNK2 (MAPK9) (Homo sapiens, UniProt P45984); test: scanMAX binding POC, JNK2; conditions: 1 μM
Chain of JNK2 (MAPK9) (P45984 whole entry): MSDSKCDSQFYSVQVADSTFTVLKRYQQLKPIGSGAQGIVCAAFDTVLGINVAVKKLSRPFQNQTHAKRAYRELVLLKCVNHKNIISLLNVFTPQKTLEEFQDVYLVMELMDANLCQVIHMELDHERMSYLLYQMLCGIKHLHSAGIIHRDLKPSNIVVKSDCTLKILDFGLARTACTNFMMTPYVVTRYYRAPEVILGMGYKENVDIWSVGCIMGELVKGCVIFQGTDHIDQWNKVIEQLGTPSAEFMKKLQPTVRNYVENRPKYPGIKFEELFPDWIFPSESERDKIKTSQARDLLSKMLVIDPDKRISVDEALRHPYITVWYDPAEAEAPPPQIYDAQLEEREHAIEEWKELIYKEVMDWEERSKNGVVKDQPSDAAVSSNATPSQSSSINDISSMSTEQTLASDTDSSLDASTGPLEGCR
Procedure: as §9, §10, §11

JNK3 (MAPK10) = JNK3 (MAPK10) (Homo sapiens, UniProt P53779); test: scanMAX binding POC, JNK3; conditions: 1 μM
Chain of JNK3 (MAPK10) (P53779 whole entry): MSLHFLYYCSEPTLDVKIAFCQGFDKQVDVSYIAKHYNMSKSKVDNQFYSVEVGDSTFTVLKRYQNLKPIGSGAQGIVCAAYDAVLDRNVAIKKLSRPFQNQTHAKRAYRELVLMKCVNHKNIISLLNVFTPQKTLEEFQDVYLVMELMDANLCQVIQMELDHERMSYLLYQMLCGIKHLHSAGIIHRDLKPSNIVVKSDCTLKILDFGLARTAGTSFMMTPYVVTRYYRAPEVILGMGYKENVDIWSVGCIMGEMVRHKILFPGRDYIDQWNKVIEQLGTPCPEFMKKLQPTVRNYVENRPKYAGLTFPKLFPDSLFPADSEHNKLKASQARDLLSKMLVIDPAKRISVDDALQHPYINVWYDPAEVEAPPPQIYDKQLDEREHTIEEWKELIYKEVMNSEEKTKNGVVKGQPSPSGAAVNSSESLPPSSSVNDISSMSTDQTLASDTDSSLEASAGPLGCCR
Procedure: as §9, §10, §11

BMX = target: T7, BMX (Homo sapiens, UniProt P51813); test: scanMAX binding POC, BMX; conditions: 1 μM
T7 sequence (P51813 1-675): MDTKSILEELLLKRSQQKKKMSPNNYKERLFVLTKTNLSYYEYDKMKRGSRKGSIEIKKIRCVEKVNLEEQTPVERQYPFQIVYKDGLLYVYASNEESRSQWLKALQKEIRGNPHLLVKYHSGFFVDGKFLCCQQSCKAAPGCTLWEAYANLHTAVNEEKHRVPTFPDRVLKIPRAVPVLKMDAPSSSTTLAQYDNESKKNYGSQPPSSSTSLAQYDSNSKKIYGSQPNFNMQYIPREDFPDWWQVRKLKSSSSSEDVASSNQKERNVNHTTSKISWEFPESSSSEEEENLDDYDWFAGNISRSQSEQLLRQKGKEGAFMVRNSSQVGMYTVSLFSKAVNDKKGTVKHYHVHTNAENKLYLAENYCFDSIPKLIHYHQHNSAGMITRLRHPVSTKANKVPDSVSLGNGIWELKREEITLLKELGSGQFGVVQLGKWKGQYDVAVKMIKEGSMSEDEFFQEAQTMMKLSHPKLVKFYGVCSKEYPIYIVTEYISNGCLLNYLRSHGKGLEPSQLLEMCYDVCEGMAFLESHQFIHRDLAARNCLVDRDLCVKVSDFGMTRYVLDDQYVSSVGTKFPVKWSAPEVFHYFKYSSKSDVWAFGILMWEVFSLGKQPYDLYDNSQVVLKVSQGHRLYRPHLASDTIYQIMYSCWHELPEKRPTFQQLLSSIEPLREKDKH
Source text: as §1, §2, §3, §4, §5, §6, §7, §8

patients with R/R MCL = tested on: patients with R/R MCL; design: method as in NCT03494179; conditions: ref NCT03494179; cited from earlier work
[3] = tested on: 468 kinases/kinase domains; conditions: scanMAX at 1 μM, POC <35
Procedure: The compounds were diluted directly into the assays such that the final concentration of DMSO was 0.9%. No enzyme purification steps were performed on the protein extracts before adding them to the reaction mixture, and the protein extracts were diluted 10,000-fold in the final reaction mixture (the final DNA-tagged enzyme concentration was less than 0.1 nM). Binding assay mixtures were incubated at 25 °C with shaking for 1 h. […] The concentration of wild-type or mutant BTK in the eluates was then determined using quantitative PCR.

BTK [4] = conditions: cited from earlier work

BTK binding POC (BTK [1])	TEC binding POC (TEC)	TXK binding POC (TXK)	ITK binding POC (ITK)	BLK binding POC (BLK)	EGFR binding POC (EGFR)	ERBB2 binding POC (ERBB2)	ERBB3 binding POC (ERBB3)	ERBB4 binding POC (ERBB4)	JAK3 binding POC [2]	MKK7 binding POC (MKK7)	JNK1 (MAPK8) POC (JNK1 (MAPK8))	JNK2 (MAPK9) POC (JNK2 (MAPK9))	JNK3 (MAPK10) POC (JNK3 (MAPK10))	BMX binding POC (BMX)	Compound	further results
0% of control	7.8% of control	2% of control	17% of control	3.2% of control	77% of control	100% of control	75% of control	75% of control	48% of control	100% of control	82% of control	89% of control	89% of control	–	CC#CC(=O)N[C@H]1CCCN(c2c(F)cc(C(N)=O)c3[nH]c(C)c(C)c23)C1 [Branebrutinib]	–
–	–	34% of control	100% of control	52% of control	–	100% of control	88% of control	96% of control	89% of control	100% of control	100% of control	100% of control	100% of control	27% of control	C=CC(=O)N1CCC(c2ccc(C(N)=O)c(-c3ccc(Oc4ccccc4)cc3)n2)CC1 [Orelabrutinib]	CR (patients with R/R MCL): 27.4%; PR (patients with R/R MCL): 53.8%; overall response rate (patients with R/R MCL): 81.1%
0.15% of control	20% of control	97% of control	97% of control	100% of control	99% of control	100% of control	100% of control	100% of control	100% of control	100% of control	93% of control	99% of control	100% of control	–	C=CC(=O)N(C)CCOc1c(N)ncnc1-c1cc(F)cc(NC(=O)c2ccc(C3CC3)cc2F)c1C [Remibrutinib]	off-target hits [3]: one; pIC50 (BTK [4]): 8.89
–	–	1.1% of control	67% of control	0.05% of control	–	0% of control	0.8% of control	–	36% of control	19% of control	96% of control	83% of control	90% of control	11% of control	C=CC(=O)N1CCC[C@@H](n2c(=O)n(-c3ccc(Oc4ccccc4)cc3)c3c(N)nccc32)C1 [Tolebrutinib]	MKK7 binding POC (MKK7; listed as tolebrutinib): weak hit

Compound	BTK binding POC (BTK [1])	TEC binding POC (TEC)	TXK binding POC (TXK)	ITK binding POC (ITK)	BLK binding POC (BLK)	EGFR binding POC (EGFR)	ERBB2 binding POC (ERBB2)	ERBB3 binding POC (ERBB3)	ERBB4 binding POC (ERBB4)	JAK3 binding POC [2]	MKK7 binding POC (MKK7)	JNK1 (MAPK8) POC (JNK1 (MAPK8))	JNK2 (MAPK9) POC (JNK2 (MAPK9))	JNK3 (MAPK10) POC (JNK3 (MAPK10))	BMX binding POC (BMX)	further results
C=CC(=O)N1CCC(CNc2ncnc(N)c2-c2ccc(Oc3ccccc3)cc2)CC1 [Evobrutinib]	–	10% of control	23% of control	–	–	88% of control	91% of control	97% of control	32% of control	100% of control	100% of control	95% of control	100% of control	100% of control	–	–

Reference: article PMC11997881, “Comprehensive Characterization of Bruton’s Tyrosine Kinase Inhibitor Specificity, Potency, and Biological Effects: Insights into Covalent and Noncovalent Mechanistic Signatures” (ACS Pharmacology & Translational Science, 2025)
